Source: US9833423B2 (KOREA RESEARCH INSTITUTE OF CHEMICAL TECHNOLOGY, priority 2011, dated 2017)
Values after ≈ are worked out from the molar mass of the structure shown.

What was measured:
[1] = in vitro; conditions: human

SMILES	melting point [°C]	CC50 ([1]; CC50) [µg/mL]	CC50 ([1]; Picorna-virus CC50) [µg/mL]
CC(=O)Oc1cc(-c2ccccc2)ccc1C1(OC(C)=O)C(=O)c2ccccc2C1=O [Example 8, 4-(2-Acetoxy-1,3-dioxo-2,3-dihydro-1H-inden-2-yl)biphenyl-3-yl acetate]	165 to 167	7.91	–
COc1cc(C(C)C)ccc1C1(O)C(=O)c2cccc(N)c2C1=O (stereo not shown) [Example 41, 4-Amino-2-hydroxy-2-(4-isopropyl-2-methoxyphenyl)-2H-inden-1,3-dione]	219 to 220	–	–
O=C1c2ccccc2C(=O)C1(O)c1ncc(Cl)cc1O [Example 73, 2-(5-Chloro-3-hydroxypyridin-2-yl)-2-hydroxy-1H-inden-1,3(2H)-dione]	–	> 100	–
COC(=O)NC1(c2ccc(C(C)C)cc2OC)C(=O)c2ccccc2C1=O [Example 59, Methyl 2-(4-isopropyl-2-methoxyphenyl)-1,3-dioxo-2,3-dihydro-1H-inden-2-ylcarbamate]	153 to 155	53.7 (≈ 146 µM)	–
CC(=O)Oc1ccc([N+](=O)[O-])cc1C1(OC(C)=O)C(=O)c2ccccc2C1=O [Example 9, 2-(2-Acetoxy-1,3-dioxo-2,3-dihydro-1H-inden-2-yl)-4-nitrophenyl acetate]	163 to 167	> 100	–
COc1ccc2c(c1)C(=O)C(OC(C)=O)(c1ccc(C(C)C)cc1OC(C)=O)C2=O (stereo not shown) [Example 27, 2-(2-Acetoxy-4-isopropylphenyl)-5-methoxy-1,3-dioxo-2,3-dihydro-1H-inden-2-yl acetate]	146 to 148	9.5	–
COc1cc(C(C)C)ccc1C1(NC(C)=O)C(=O)c2cccc(NC(C)=O)c2C1=O (stereo not shown) [Example 67, N,N′-(2-(4-Isopropyl-2-methoxyphenyl)-1,3-dioxo-2,3-dihydro-1H-inden-2,4-diyl)diacetamide]	241 to 243	54.6 (≈ 134 µM)	–
CC(=O)Nc1cc(C)c(C)cc1C1(O)C(=O)c2ccccc2C1=O [Example 86, N-(2-(2-Hydroxy-1,3-dioxo-2,3-dihydro-1H-inden-2-yl)-4,5-dimethylphenyl)acetamide]	–	–	4.63 (≈ 14.3 µM)
CCC(C)c1ccc(OC(C)=O)c(C2(OC(C)=O)C(=O)c3ccccc3C2=O)c1 (stereo not shown) [Example 13, 2-(2-Acetoxy-1,3-dioxo-2,3-dihydro-1H-inden-2-yl)-4-sec-butylphenyl acetate]	118 to 120	7.93	–
CC(=O)Oc1ccc(-c2ccccc2)cc1C1(OC(C)=O)C(=O)c2ccccc2C1=O [Example 10, 3-(2-Acetoxy-1,3-dioxo-2,3-dihydro-1H-inden-2-yl)biphenyl-4-yl acetate]	196 to 198	7.85	–
COC1(c2ccc(C(C)C)cc2O)C(=O)c2ccccc2C1=O [Example 28, 2-(2-Hydroxy-4-isopropylphenyl)-2-methoxy-1H-inden-1,3(2H)-dione]	272 to 274	9.2 (≈ 29.6 µM)	–
CCN(CC)C(=O)Oc1cc(C(C)C)ccc1C1(O)C(=O)c2ccccc2C1=O [Example 34, 2-(2-Hydroxy-1,3-dioxo-2,3-dihydro-1H-inden-2-yl)-5-isopropylphenyl diethylcarbamate]	103 to 106	46.2 (≈ 117 µM)	–
CCc1ccc(C2(O)C(=O)c3ccccc3C2=O)c(NC(C)=O)c1 [Example 88, N-(5-Ethyl-2-(2-hydroxy-1,3-dioxo-2,3-dihydro-1H-inden-2-yl)phenyl)acetamide]	–	–	4.49 (≈ 13.9 µM)
COc1cc(NC(=O)C(C)C)c(C2(O)C(=O)c3cc(OC)c(OC)cc3C2=O)cc1OC [Example 108, N-[2-(2-Hydroxy-5,6-dimethoxy-1,3-dioxo-indan-2-yl)-4,5-dimethoxy-phenyl]-isobutyramide]	–	–	> 100
COc1cc(C(C)C)ccc1C1(NC(=O)c2ccccc2)C(=O)c2ccccc2C1=O [Example 55, N-(2-(4-Isopropyl-2-methoxyphenyl)-1,3-dioxo-2,3-dihydro-1H-inden-2-yl)benzamide]	106 to 108	> 117	–
COc1cc(C(C)C)ccc1C1(Cl)C(=O)c2cccc([N+](=O)[O-])c2C1=O (stereo not shown) [Example 39, 2-Chloro-2-(4-isopropyl-2-methoxyphenyl)-4-nitro-2H-inden-1,3-dione]	81 to 84	6.67 (≈ 17.8 µM)	–
CC(=O)Oc1cc(C)c(C)c(C)c1C1(OC(C)=O)C(=O)c2ccccc2C1=O [Example 16, 2-(2-Acetoxy-1,3-dioxo-2,3-dihydro-1H-inden-2-yl)-3,4,5-trimethylphenyl acetate]	238 to 242	8.87	–
COc1cc(C(C)C)ccc1C1(O)C(=O)c2ccc([N+](=O)[O-])c(NC(C)=O)c2C1=O (stereo not shown) [Example 43, N-(2-Hydroxy-2-(4-isopropyl-2-methoxyphenyl)-5-nitro-1,3-dioxo-2,3-dihydro-1H-inden-4-yl)acetamide]	199 to 201	61.7 (≈ 150 µM)	–
CC(C)c1ccc(C2(O)Cc3ccccc3C2=O)c(O)c1 (stereo not shown) [Example 51, 2-Hydroxy-2-(2-hydroxy-4-isopropylphenyl)-2,3-dihydro-1H-inden-1-one]	144 to 146	9.34 (≈ 33.1 µM)	–
O=C1c2ccccc2C(=O)C1(O)c1cc2ncccc2cc1O [Example 75, 2-Hydroxy-2-(6-hydroxyquinolin-7-yl)-1H-inden-1, 3(2H)-dione]	–	> 100	–
COc1cc(C(C)C)ccc1C1(O)C(=O)c2c(N)ccc(NC(C)=O)c2C1=O (stereo not shown) [Example 44, N-(7-Amino-2-hydroxy-2-(4-isopropyl-2-methoxyphenyl)-1,3-dioxo-2,3-dihydro-1H-inden-4-yl)acetamide]	–	> 117	–
CCOC(=O)Oc1cc(C(C)C)ccc1C1(OC(=O)OCC)C(=O)c2cccnc2C1=O (stereo not shown) [Example 105, ethyl (6-(2-((ethoxycarbonyl)oxy)-4-isopropylphenyl)-5,7-dioxo-6,7-dihydro-5H-cyclopenta[b]pyridin-6-yl)carbonate]	–	–	> 100
Cc1cc(NC(=O)C(C)C)c(C2(O)C(=O)c3ccccc3C2=O)cc1C [Example 90, N-(2-(2-Hydroxy-1,3-dioxo-2,3-dihydro-1H-inden-2-yl)-4,5-dimethylphenyl)isobutyramide]	–	–	38.3 (≈ 109 µM)
CCCC(=O)Nc1cc(C)c(C)cc1C1(O)C(=O)c2ccccc2C1=O [Example 89, N-(2-(2-Hydroxy-1,3-dioxo-2,3-dihydro-1H-inden-2-yl)-4,5-dimethylphenyl)butyramide]	–	–	10.7 (≈ 30.4 µM)
CC(=O)Oc1ccc(C)nc1C1(OC(C)=O)C(=O)c2ccccc2C1=O [Example 71, 2-(2-Acetoxy-1,3-dioxo-2,3-dihydro-1H-inden-2-yl)-6-methylpyridin-3-yl acetate]	–	> 100	–
COc1cccc(C2C(=O)c3ccccc3C2=O)c1 [Example 104, 2-(3-Methoxyphenyl)-2H-inden-1,3-dione]	–	–	> 100
COc1cc(C(C)C)ccc1C1(N=[N+]=[N-])C(=O)c2cccc([N+](=O)[O-])c2C1=O (stereo not shown) [Example 40, 2-Azido-2-(4-isopropyl-2-methoxyphenyl)-4-nitro-2H-inden-1,3-dione]	–	53.2 (≈ 140 µM)	–
COc1cc(NC(=O)C(C)C)c(C2(O)C(=O)c3cccc(N)c3C2=O)cc1OC (stereo not shown) [Example 107, N-[2-(4-Amino-2-hydroxy-1,3-dioxo-indan-2-yl)-4,5-dimethoxy-phenyl]-isobutyramide]	–	–	> 100
COc1cc(C(C)C)ccc1C1(O)C(=O)c2cccc([N+](=O)[O-])c2C1=O (stereo not shown) [Example 38, 2-Hydroxy-2-(4-isopropyl-2-methoxyphenyl)-4-nitro-2H-inden-1,3-dione]	–	> 100	–
